Patent US8735414B2 (priority 2009, dated 2014)

Columns and labels:
[1] = system: bicistronic HCV replicon (replicon RNA, GenBank Accession No. AJ242654); test: HCV Replicon Assay; type: cell-based; conditions: Hepatitis C virus, 72 h, read-out: Replicon IC50

Compound | IC50 [1] | melting point
CCn1c(-c2ccc(N(C(C)C)S(=O)(=O)CC)cn2)c(C#N)c2ccc(OC(C)C)cc21 [compound 282, N-{6-[3-cyano-1-ethyl-6-(propan-2-yloxy)-1H-indol-2-yl]pyridin-3-yl}-N-(propan-2-yl)ethanesulfonamide] | 500 to 2000 nM | 170 to 175 °C
Cc1ccc2c(C#N)c(-c3ccc(S(=O)(=O)N[C@@H](C)C(F)(F)F)cn3)n(C3CCCC3)c2c1 [compound 352, 6-(3-cyano-1-cyclopentyl-6-methyl-1H-indol-2-yl)-N-[(2S)-1,1,1-trifluoropropan-2-yl]pyridine-3-sulfonamide] | < 500 nM | 176 to 180 °C
CC(C)(C)S(=O)(=O)Nc1ccc(-c2c(C#N)c3c(F)cc(C4CC4)cc3n2C2CCCCC2)nc1 [compound 1092, N-[6-(3-cyano-1-cyclohexyl-6-cyclopropyl-4-fluoro-1H-indol-2-yl)pyridin-3-yl]-2-methylpropane-2-sulfonamide] | < 500 nM | 252 to 255 °C
CC(C)NS(=O)(=O)c1cnc(-c2c(C#N)c3ccc(F)cc3n2C(C)C)nc1 [compound 140, 2-[3-cyano-6-fluoro-1-(propan-2-yl)-1H-indol-2-yl]-N-(propan-2-yl)pyrimidine-5-sulfonamide] | 500 to 2000 nM | 158 to 160 °C
N#Cc1c(-c2ccc(S(=O)(=O)NC(CF)CF)cn2)n(C2CCC2)c2cc(N3CCOCC3)ccc12 [compound 322, 6-[3-cyano-1-cyclobutyl-6-(morpholin-4-yl)-1H-indol-2-yl]-N-(1,3-difluoropropan-2-yl)pyridine-3-sulfonamide] | 2000 to 5000 nM | 241 to 242 °C
Cc1ccc2c(C#N)c(-c3ncc(S(=O)(=O)NC(C)C)cn3)n(C3CCCCC3)c2c1 [compound 98, 2-(3-cyano-1-cyclohexyl-6-methyl-1H-indol-2-yl)-N-(propan-2-yl)pyrimidine-5-sulfonamide] | < 500 nM | 196 to 201 °C
C[C@H](NS(=O)(=O)c1ccc(-c2c(C#N)c3ccc(F)cc3n2CC2CC2)nc1)C(F)(F)F [compound 397, 6-[3-cyano-1-(cyclopropylmethyl)-6-fluoro-1H-indol-2-yl]-N-[(2S)-1,1,1-trifluoropropan-2-yl]pyridine-3-sulfonamide] | < 500 nM | 174 to 175 °C
Cc1cc2c(cc1F)c(C#N)c(-c1ccc(S(=O)(=O)NC(C)(C)C)cn1)n2C1CCCC1 [compound 643, N-tert-butyl-6-(3-cyano-1-cyclopentyl-5-fluoro-6-methyl-1H-indol-2-yl)pyridine-3-sulfonamide] | < 500 nM | 208 to 209 °C
Cc1cc2c(cc1F)c(C#N)c(-c1ccc(S(=O)(=O)N[C@@H](C)C(F)(F)F)cn1)n2-c1nccs1 [compound 934, 6-[3-cyano-5-fluoro-6-methyl-1-(1,3-thiazol-2-yl)-1H-indol-2-yl]-N-[(2S)-1,1,1-trifluoropropan-2-yl]pyridine-3-sulfonamide] | < 500 nM | 203 to 208 °C
Cc1cc2c(cc1F)c(C(N)=O)c(-c1ccc(S(=O)(=O)NC3(C(F)(F)F)CC3)cn1)n2C1CCCC1 [compound 730, 1-cyclopentyl-5-fluoro-6-methyl-2-(5-{[1-(trifluoromethyl)cyclopropyl]sulfamoyl}pyridin-2-yl)-1H-indole-3-carboxamide] | < 500 nM | 220 to 221 °C
Cc1cc2c(cc1F)c(C(N)=O)c(-c1ccc(S(=O)(=O)N[C@H](C)C(F)(F)F)cn1)n2C1CCOCC1 [compound 767, 5-fluoro-6-methyl-1-(tetrahydro-2H-pyran-4-yl)-2-(5-{[(2R)-1,1,1-trifluoropropan-2-yl]sulfamoyl}pyridin-2-yl)-1H-indole-3-carboxamide] | < 500 nM | 258 to 262 °C
CCc1ccc2c(c1)c(C#N)c(-c1ccc(S(=O)(=O)NC(CF)CF)cn1)n2C1CCCC1 [compound 381, 6-(3-cyano-1-cyclopentyl-5-ethyl-1H-indol-2-yl)-N-(1,3-difluoropropan-2-yl)pyridine-3-sulfonamide] | < 500 nM | 167 to 168 °C
